Literature values, collected in US6514536B2, “Drug preparations for treating sexual dysfunction” (L.A.M. Pharmaceutical Corporation, priority 1998, dated 2003).

What was measured:
[1] = most abundant metabolite in plasma
[2] = system: isolated corpus cavernosum and corpus spongiosum preparations; details: in vitro
[3] = system: isolated cavernosal artery segments; details: segments pre-contracted with noreginephrine or prostaglandin E2α
blood pressure = details: intravenous doses of 1 to 10 micrograms per kilogram of body weight
erection = details: men who failed prior intracavernous therapy with papaverine and phentolamine
penile blood flow = details: duplex sonography

| Compound | biological activity [1] | smooth muscle relaxation [2] | vasodilation [3] | effect on blood pressure (blood pressure) | share of men achieving adequate erections (erection) | increase in penile blood flow compared with papaverine (penile blood flow) |
| --- | --- | --- | --- | --- | --- | --- |
| CCCCCC(=O)CC[C@H]1[C@H](O)CC(=O)[C@@H]1CCCCCCC(=O)O [DKH-PGE1, 13,14-dihydro,15-keto PGE1] | biologically inactive |  |  |  |  |  |
| CCCCC[C@H](O)/C=C/[C@H]1[C@H](O)CC(=O)[C@@H]1CCCCCCC(=O)O [PGE1, prostaglandin E1] |  | dose-dependent smooth muscle relaxation | vasodilation has been demonstrated | lower blood pressure | two-thirds | at least as effective as papaverine |
